Source: US20250034173A1, “PYRIDO[4,3-D]PYRIMIDINE COMPOUNDS” (PFIZER INC., priority 2023, published 2025)

What was measured:
KRAS Wild Type = KRAS Wild Type (Homo sapiens (Human), UniProt P01116); assay: SPR binding affinity and kinetics, GTPγS-loaded KRAS Wild Type; settings: GTPγS loaded protein, geomean
Procedure, shortened: (§1)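 Fits to the SPR data were assessed through c2 and whether residues scattered randomly; dissociation phases ran ≥3600 seconds, regeneration omitted.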

KRAS G12D = KRAS G12D (Homo sapiens (Human), UniProt P01116, G12D); assay: SPR binding affinity and kinetics, GTPγS-loaded KRAS G12D; settings: GTPγS loaded protein, geomean
Procedure, shortened: as §1

KRAS G12C = KRAS G12C (Homo sapiens (Human), UniProt P01116, G12C); assay: SPR binding affinity and kinetics, GTPγS-loaded KRAS G12C; settings: GTPγS loaded protein, geomean
Procedure, shortened: as §1

KRAS G12V = KRAS G12V (Homo sapiens (Human), UniProt P01116, G12V); assay: SPR binding affinity and kinetics, GTPγS-loaded KRAS G12V; settings: GTPγS loaded protein, geomean
Procedure, shortened: as §1

HRAS Wild Type = HRAS Wild Type (Homo sapiens (Human), UniProt P01112); assay: SPR binding affinity and kinetics, GTPγS-loaded HRAS Wild Type; settings: GTPγS loaded protein, geomean
Source text: (§2) No additional regeneration was used.
(§3) Compound dissociation was monitored for at least 3600 seconds. […] No additional regeneration was used.
(§4) The adequateness of the fit was judged by c2 values and the randomness of residue distribution.

NRAS Wild Type = NRAS Wild Type (Homo sapiens (Human), UniProt P01111); assay: SPR binding affinity and kinetics, GTPγS-loaded NRAS Wild Type; settings: GTPγS loaded protein, geomean
Source text: as §2, §3, §4

[1] = tested on: H358 (non-small cell lung cancer cell line); assay: KRAS Cell Titer Glo (CTG) cell proliferation assay, H358; type: cell-based; settings: Homo sapiens, NCI-H358, 168 h; H358 cells, 7-day CTG, geomean IC50
Procedure, shortened: (§5)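 Compounds pre-dispensed in 0.1% DMSO before seeding H358 (300 cells/well), SW620 (750) or PANC08.13 (600); 7-day exposure at 37 °C, 5% CO2. Viability by CellTiter-Glo luminescence after 15 min at room temperature. Percent effect normalised to DMSO (0%) and 1 uM trametinib (100%); geomean IC50.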

[2] = tested on: SW620 (colorectal cancer cell line); assay: KRAS Cell Titer Glo (CTG) cell proliferation assay, SW620; type: cell-based; settings: Homo sapiens, SW-620, 168 h; SW620 cells, 7-day CTG, geomean IC50
Procedure, shortened: as §5

[3] = tested on: PANC08.13 (pancreatic cancer cell line); assay: KRAS Cell Titer Glo (CTG) cell proliferation assay, PANC08.13; type: cell-based; settings: Homo sapiens, PANC-08-13, 168 h; PANC08.13 cells, 7-day CTG, geomean IC50
Procedure, shortened: as §5

Row | Compound | Kd (KRAS Wild Type) [µM] | Kd (KRAS G12D) [µM] | Kd (KRAS G12C) [µM] | Kd (KRAS G12V) [µM] | Kd (HRAS Wild Type) [µM] | Kd (NRAS Wild Type) [µM] | IC50 [1] [µM] | IC50 [2] [µM] | IC50 [3] [µM]
1 | F/C=C1\CN2CCC[C@@]2(COc2nc3c4c(nc(-c5c(C6CC6)c(Cl)cc6[nH]ncc56)c(F)c4n2)OC[C@@H]2COCCCN32)C1 [Example 16, (8aS)-5-(6-chloro-5-cyclopropyl-1H-indazol-4-yl)-4-fluoro-2-{[(2Z,7aS)-2-(fluoromethylidene)tetrahydro-1H-pyrrolizin-7a(5H)-yl]methoxy}-8a,9,12,13-tetrahydro-8H,11H-7,10-dioxa-1,3,6,13a-tetraazanaphtho[1,8-ab]heptalene] | 0.004 | 0.003 | 0.004 | 0.004 | > 10 | > 10 | 0.022 | 0.023 | 0.002
2 | C=C1CN2CCC[C@@]2(COc2nc3c4c(nc(-c5c(C6CC6)c(Cl)cc6[nH]ncc56)c(F)c4n2)OC[C@@H]2COCCN32)C1 [Example 22, (8aS)-5-(6-chloro-5-cyclopropyl-1H-indazol-4-yl)-4-fluoro-2-{[(7aS)-2-methylidenetetrahydro-1H-pyrrolizin-7a(5H)-yl]methoxy}-8a,9,11,12-tetrahydro-8H-7,10-dioxa-1,3,6,12a-tetraazabenzo[4,5]cyclohepta[1,2,3-de]naphthalene] |  | 0.25 |  |  | > 10 | > 10 | 0.636 | 0.839 | 0.098
3 | (1Z)-1-[(7aS)-7a-({[(8aS)-5-(6-chloro-5-cyclopropyl-1H-indazol-4-yl)-4-fluoro-8a,9,12,13-tetrahydro-8H,11H-7,10-dioxa-1,3,6,13a-tetraazanaphtho[1,8-ab]heptalen-2-yl]oxy}methyl)tetrahydro-1H-pyrrolizin-2(3H)-ylidene]propan-2-ol [Example 60] | 0.025 | 0.011 | 0.026 | 0.018 | > 10 | > 10 |  |  | 

Second part, the compound after the results:

Row | Kd (KRAS Wild Type) [µM] | Kd (KRAS G12D) [µM] | Kd (KRAS G12C) [µM] | Kd (KRAS G12V) [µM] | Kd (HRAS Wild Type) [µM] | Kd (NRAS Wild Type) [µM] | IC50 [1] [µM] | IC50 [2] [µM] | IC50 [3] [µM] | Compound
4 | 0.008 | 0.006 | 0.005 | 0.009 | > 10 | > 10 | 0.062 | 0.103 | 0.003 | Fc1c(-c2c(C3CC3)c(Cl)cc3[nH]ncc23)nc2c3c(nc(OC[C@]45CCCN4CC4(CC4)C5)nc13)N1CCCOC[C@H]1CO2 [Example 19, (8aS)-2-{[(7′aR)-dihydro-1′H,3′H-spiro[cyclopropane-1,2′-pyrrolizin]-7′a(5′H)-yl]methoxy}-5-(6-chloro-5-cyclopropyl-1H-indazol-4-yl)-4-fluoro-8a,9,12,13-tetrahydro-8H,11H-7,10-dioxa-1,3,6,13a-tetraazanaphtho[1,8-ab]heptalene]
5 | 0.091 | 0.051 | 0.031 | 0.05 | > 10 | > 10 | 0.275 | 0.4 | 0.017 | C=C1CN2CCC[C@@]2(COc2nc3c4c(nc(-c5c(C6CC6)ccc6[nH]ncc56)c(F)c4n2)OC[C@@H]2COCCCN32)C1 [Example 20, (8aS)-5-(5-cyclopropyl-1H-indazol-4-yl)-4-fluoro-2-{[(7aS)-2-methylidenetetrahydro-1H-pyrrolizin-7a(5H)-yl]methoxy}-8a,9,12,13-tetrahydro-8H,11H-7,10-dioxa-1,3,6,13a-tetraazanaphtho[1,8-ab]heptalene]
6 | 0.031 | 0.021 | 0.014 | 0.015 | > 10 | > 10 | 0.381 | 0.268 | 0.008 | C=C1CN2CCC[C@@]2(COc2nc3c4c(nc(-c5c(C6CC6)c(Cl)cc6[nH]ncc56)c(F)c4n2)OC[C@@H]2CCCCN32)C1 [Example 21, (8aS)-5-(6-chloro-5-cyclopropyl-1H-indazol-4-yl)-4-fluoro-2-{[(7aS)-2-methylidenetetrahydro-1H-pyrrolizin-7a(5H)-yl]methoxy}-8,8a,9,10,11,12-hexahydro-7-oxa-1,3,6,12a-tetraazabenzo[4,5]cyclohepta[1,2,3-de]naphthalene]
